# ChEMBL document CHEMBL1140673, “Agonist lead identification for the high affinity niacin receptor GPR109a” (Bioorg Med Chem Lett, 2007)
# Active and inactive are the calls of the source. No cut-off for these calls is given here.
# Target: Hydroxycarboxylic acid receptor 3 (Homo sapiens) (UniProt P49019)
# Assay: Agonist activity at human cloned GPR109b receptor at 100 uM by forskolin-stimulated cAMP production test
# Format: functional
# Chain of Hydroxycarboxylic acid receptor 3 (Homo sapiens) (P49019 whole entry): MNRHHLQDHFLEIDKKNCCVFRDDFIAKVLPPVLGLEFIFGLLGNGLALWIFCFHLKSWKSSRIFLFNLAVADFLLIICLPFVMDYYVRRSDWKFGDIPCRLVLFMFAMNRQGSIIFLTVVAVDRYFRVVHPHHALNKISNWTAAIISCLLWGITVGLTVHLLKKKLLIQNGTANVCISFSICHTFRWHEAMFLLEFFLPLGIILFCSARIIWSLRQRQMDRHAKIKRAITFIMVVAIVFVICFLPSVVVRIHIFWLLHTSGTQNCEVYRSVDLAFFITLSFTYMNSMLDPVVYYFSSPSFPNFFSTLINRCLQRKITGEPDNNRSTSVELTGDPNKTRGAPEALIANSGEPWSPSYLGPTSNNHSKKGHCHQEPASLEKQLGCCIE
smiles,measurement,value
Cc1cc(C(=O)O)n[nH]1,Activity,inactive
